Measured values as given in patent US20150017673A1, “COMPOSITIONS AND METHODS FOR DRUG-SENSITIZATION OR INHIBITION OF A CANCER CELL” (priority 2012, published 2015).
Like-named read-outs stand apart in the source and are kept apart here.

What was measured:
lymphoma cell line G3 = assay: Cell growth assay (resazurin fluorescence) on CHOP-resistant G3 NHL cells; format: cell-based, human
Experimental: (§1) Compositions were tested on CHOP-resistant G3 NHL cells that had been cultivated in RPMI medium for five days. Prior to assay, the cells were counted by haemocytometer and cell concentration standardized to 625,000 cells/ml. Test drugs were solubilized in 100% DMSO and then diluted to final assay concentration with 0.1M phosphate buffered saline (PBS) and a final DMSO concentration of 0.5%. Cells were added to assay plates containing the test drugs (rifabutin+148 ng/ml, 74 ng/ml, 37 ng/ml, or 0 ng/ml doxorubicin) and allowed to incubate for 96 hours at 37° C. and 5% CO2. The metabolic dye rezasurin was added to the wells of the assay plate at a final concentration of 20 μg/ml and the plates were incubated for an additional 24 hours. The plates were then read in a BMG Polarstar plate reader at wavelength (573-605) and the data plotted as OD versus increasing dilutions (i.e. decreasing total amounts) of rifabutin derivative concentration.

ovarian cancer OVCAR-8 = assay: Cell growth assay on OVCAR-8 cells; format: cell-based; settings: for IC50: Homo sapiens
Experimental: as §1
(§2) Additional cell lines used include: ovarian cancer OVCAR-8, T lymphoblastoid leukemia MOLT-4, dexamethasone-resistant multiple myeloma MM.1R, myeloid leukemia cells HL-60, osteosarcoma cells U-2 OS, and myeloma RPMI 8226.

[1] = tested on: osteosarcoma cells U-2 OS; assay: Cell growth assay on U-2 OS cells; format: cell-based; settings: for IC50: Homo sapiens, U2OS
Experimental: as §1, §2

[2] = tested on: multi-drug resistant ovarian carcinoma cell line SK-OV3; assay: Cell growth assay on SK-OV3 cells; format: cell-based, human; settings: for IC50: Homo sapiens, SK-OV-3
Experimental: as §1
(§3) In these experiments, the following cell lines were used: CHOP-resistant NHL cell line G3, CHOP-sensitive NHL cell line CRL2631, the multi-drug resistant sarcoma cell line MES-SA-Dx5; multi-drug-resistant breast cancer cell line MDA-MB-231, multi-drug resistant ovarian carcinoma cell line SK-OV3, multi-drug resistant ovarian cancer cell line NCI/ADR-RES, drug-sensitive ovarian cancer cell line OVCAR-5, and multi-drug resistant ovarian cancer cell line OVCAR-3. […]

myeloma RPMI 8226 = assay: Cell growth assay on RPMI 8226 cells; format: cell-based; settings: for IC50: Homo sapiens
Experimental: as §1, §2

[3] = tested on: myeloid leukemia cells HL-60; assay: Cell growth assay on HL-60 cells; format: cell-based; settings: for IC50: Homo sapiens
Experimental: as §1, §2

calcium in G3 cells = assay: Calcium mobilization (Fluo-4AM, flow cytometry); format: cell-based, human
Experimental: MDR/P-gp activity is closely associated with calcium status in the cell, so calcium modulators were tested for effects on ROS. […] Relatively Dox-sensitive lymphoma (CRL2631, 10S, WSU) and ovarian carcinoma (OVCAR8) and more Dox-resistant lymphoma (G3R,10R, WSUR) and ovarian carcinoma (ADR) were treated with 10 uM […] for 2 hrs. […] Cells were co-stained with the cell-permeable red fluorescent ROS indicator, CellROX, and cell-permeable green fluorescent calcium indicator, Fluo-4AM, and then subjected to flow cytometry to quantitate changes in ROS and calcium levels.
(§4) All samples were analyzed at the same time in flow cytometry.

VEGF = VEGF secretion ELISA in U2-OS cells; format: cell-based; settings: RTI-79, U2-OS cells; decrease from 998
[4] = tested on: multi-drug-resistant breast cancer cell line MDA-MB-231; assay: Cell growth assay on MDA-MB-231 cells; format: cell-based; settings: MDA-MB-231, breast carcinoma
Experimental: as §1
(§5) In these experiments, the following cell lines were used: CHOP-resistant NHL cell line G3, CHOP-sensitive NHL cell line CRL2631, the multi-drug resistant sarcoma cell line MES-SA-Dx5; multi-drug-resistant breast cancer cell line MDA-MB-231, multi-drug resistant ovarian carcinoma cell line SK-OV3, multi-drug resistant ovarian cancer cell line NCI/ADR-RES, drug-sensitive ovarian cancer cell line OVCAR-5, and multi-drug resistant ovarian cancer cell line OVCAR-3.
as §2

[5] = tested on: multi-drug resistant ovarian cancer cell line NCI/ADR-RES; assay: Cell growth assay on NCI/ADR-RES cells; format: cell-based; settings: NCI/ADR-RES, ovarian carcinoma
Experimental: as §1, §5, §2

[6] = tested on: ROS in ADR-RES ovarian cells; assay: Intracellular ROS (CellROX, flow cytometry) in ADR-RES cells; format: cell-based; settings: 10 uM, 2 hrs
Text: (§6) Cells were then stained with the fluorescent ROS indicator, CellROX, and subjected to flow cytometry to quantitate total intracellular ROS.

[7] = tested on: multi-drug resistant ovarian cancer cell line (NCI/ADR-RES); assay: NCI/ADR-RES xenograft efficacy studies in nude mice; format: in vivo; settings: DOXIL 7 mg/kg i.v. + RTI-79 25 mg/kg oral
Text: In a sixth efficacy study, we generated xenografts of multi-drug resistant ovarian cancer cell line (NCI/ADR-RES) by implantation of NCI/ADR-RES cell xenografts in the left and right flanks of nude mice, resulting in two tumors per mice. […] Tumor size was monitored.
In a seventh efficacy study, we generated xenografts of multi-drug resistant ovarian cancer cell line (NCI/ADR-RES) by implantation of NCI/ADR-RES cells xenografts in the left and right flanks of nude mice, resulting in two tumors per mouse. […] Tumor size was monitored.

[8] = tested on: multi-drug resistant sarcoma cell line MES-SA-Dx5; assay: Cell growth assay on MES-SA-Dx5 cells; format: cell-based; settings: MES-SA-Dx5, uterus sarcoma
Experimental: as §1, §5, §2

[9] = tested on: ROS in OVCAR8 ovarian cells; assay: Intracellular ROS (CellROX, flow cytometry) in OVCAR8 cells; format: cell-based; settings: 10 uM, 2 hrs, degree much less than in resistant lines
Text: as §6

[10] = tested on: drug-sensitive ovarian cancer cell line OVCAR-5; assay: Cell growth assay on OVCAR-5 cells; format: cell-based; settings: OVCAR-5, ovarian carcinoma
Experimental: as §1, §5, §2

ABCB1 pumps = ABCB1 pumps (Homo sapiens, UniProt P08183)
[11] = tested on: primary human fibroblasts; settings: with and without 2 uM Dox
ROS in G3 lymphoma cells = assay: Intracellular ROS (CellROX, flow cytometry) in G3 cells; format: cell-based, human
Experimental: as §6
The electron transport chain (ETC) is known to be a primary generator of ROS in the cell. Most of the ROS is generated by Complexes I and III of the ETC Inhibition of Complex I results in electrons piling up and leaking to react with oxygen to produce ROS.
as §4

[12] = mice treated with RTI-79 with or without DOX
Experimental: Swiss mice were dosed with levels equal to and exceeding that of intended doses.

MMP2 = MMP2 secretion ELISA in U2-OS cells; format: cell-based; settings: 5 uM RTI-79, U2-OS cells; reduced from 22.4
[13] = Time to maximal RTI-79 plasma concentration; format: in vivo; settings: after administration
[14] = tested on: multi-drug resistant ovarian cancer cell line OVCAR-3; assay: Cell growth assay on OVCAR-3 cells; format: cell-based; settings: OVCAR-3, ovarian carcinoma
Experimental: as §1, §3

[15] = therapeutic drug alone, read-out: IC50
[16] = therapeutic drug with Rifabutin, read-out: IC50 (μM) with Rifabutin

Sequence of ABCB1 pumps (P08183 whole entry): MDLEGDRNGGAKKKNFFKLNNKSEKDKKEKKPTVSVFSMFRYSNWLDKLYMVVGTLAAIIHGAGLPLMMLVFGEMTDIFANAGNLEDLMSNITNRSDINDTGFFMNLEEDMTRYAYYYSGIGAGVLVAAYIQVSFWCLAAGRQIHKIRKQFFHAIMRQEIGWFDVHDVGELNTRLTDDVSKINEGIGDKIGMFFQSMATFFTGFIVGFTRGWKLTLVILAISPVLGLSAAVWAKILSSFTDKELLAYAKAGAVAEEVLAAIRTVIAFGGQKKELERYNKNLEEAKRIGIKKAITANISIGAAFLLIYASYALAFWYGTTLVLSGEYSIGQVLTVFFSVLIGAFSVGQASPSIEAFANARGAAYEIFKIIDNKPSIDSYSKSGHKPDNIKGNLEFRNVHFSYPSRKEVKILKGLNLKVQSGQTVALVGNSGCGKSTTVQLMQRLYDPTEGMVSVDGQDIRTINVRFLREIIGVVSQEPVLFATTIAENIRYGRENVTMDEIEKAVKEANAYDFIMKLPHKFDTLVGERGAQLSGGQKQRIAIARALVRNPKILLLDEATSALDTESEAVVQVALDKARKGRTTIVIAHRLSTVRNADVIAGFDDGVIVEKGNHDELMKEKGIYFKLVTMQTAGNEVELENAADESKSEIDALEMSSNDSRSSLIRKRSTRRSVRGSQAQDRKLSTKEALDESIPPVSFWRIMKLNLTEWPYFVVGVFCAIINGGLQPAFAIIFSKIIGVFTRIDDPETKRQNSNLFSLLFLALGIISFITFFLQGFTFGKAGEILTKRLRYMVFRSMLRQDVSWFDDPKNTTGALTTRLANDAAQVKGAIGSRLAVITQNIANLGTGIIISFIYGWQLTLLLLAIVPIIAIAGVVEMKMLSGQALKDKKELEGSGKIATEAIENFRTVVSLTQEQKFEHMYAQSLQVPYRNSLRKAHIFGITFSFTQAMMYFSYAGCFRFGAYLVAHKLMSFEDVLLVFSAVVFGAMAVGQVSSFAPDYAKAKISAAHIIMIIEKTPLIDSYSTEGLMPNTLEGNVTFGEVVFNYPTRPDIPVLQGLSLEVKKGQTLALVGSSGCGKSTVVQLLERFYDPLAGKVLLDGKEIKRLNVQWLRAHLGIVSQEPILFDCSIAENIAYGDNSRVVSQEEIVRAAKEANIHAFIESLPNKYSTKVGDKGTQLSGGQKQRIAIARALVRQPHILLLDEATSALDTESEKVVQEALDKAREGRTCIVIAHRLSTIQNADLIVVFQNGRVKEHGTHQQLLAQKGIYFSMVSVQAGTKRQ

SMILES: O=C1c2c(O)ccc(O)c2C(=O)c2c(NCCNCCO)ccc(NCCNCCO)c21 [Mitoxantrone, mitoxantrone]
- IC50 (lymphoma cell line G3; Homo sapiens, therapeutic drug alone, G3, read-out: IC50): 0.46 µM
- IC50 (lymphoma cell line G3; Homo sapiens, therapeutic drug with Rifabutin, G3, read-out: IC50 (μM) with Rifabutin): 0.04 µM
- Fold increase in potency (lymphoma cell line G3; with vs without Rifabutin, G3): 11.5 fold
- IC50 (ovarian cancer OVCAR-8; [15]): 14 µM
- IC50 (ovarian cancer OVCAR-8; [16]): 3 µM
- Fold increase in potency (ovarian cancer OVCAR-8; with vs without Rifabutin): 4.7 fold
- IC50 [1, 15]: 0.14 µM
- IC50 [1, 16]: 0.06 µM
- Fold increase in potency ([1]; with vs without Rifabutin): 2.3 fold
- IC50 ([2]; therapeutic drug alone, SK-OV3, read-out: IC50): > 32 µM
- IC50 ([2]; therapeutic drug with Rifabutin, SK-OV3, read-out: IC50 (μM) with Rifabutin): 12.3 µM
- Fold increase in potency ([2]; with vs without Rifabutin, SK-OV3): >2.6 fold

SMILES: CC(=O)O[C@H]1C(=O)[C@@]2(C)[C@H]([C@H](OC(=O)c3ccccc3)[C@]3(O)C[C@H](OC(=O)[C@H](O)[C@@H](NC(=O)c4ccccc4)c4ccccc4)C(C)=C1C3(C)C)[C@]1(OC(C)=O)CO[C@@H]1C[C@@H]2O [Paclitaxel, paclitaxel]
- IC50 (myeloma RPMI 8226; [15]): 1 µM
- IC50 (myeloma RPMI 8226; [16]): 0.89 µM
- Fold increase in potency (myeloma RPMI 8226; with vs without Rifabutin): 1.1 fold
- IC50 [3, 15]: 0.4 µM
- IC50 [3, 16]: 0.2 µM
- Fold increase in potency ([3]; with vs without Rifabutin): 2 fold

SMILES: COC1C=COC2(C)Oc3c(C)c(O)c4c(c3C2=O)C2=NC3(CCN(C(=O)OCC(C)C)CC3)NC2=C(NC(=O)C(C)=CC=CC(C)C(O)C(C)C(O)C(C)C(OC(C)=O)C1C)C4=O (stereo not shown) [RTI-79, 4-deoxy-3,4[2-spiro-[1-(isobutyloxycarbonyl)-piperidin-4-yl]]-(1H)-imidazo-(2,5-dihydro)rifamycin S]
- calcium mobilization (calcium in G3 cells; Dox-resistant cells (G3R, 10R, WSUR), 10 uM, 2 hrs, FIG. 41B/41C): induced both ROS and calcium mobilization
- onset of calcium mobilization (calcium in G3 cells; G3 cells, 10 uM RTI-79, 0 to 30 minutes): > 15 min
- Magnitude of potentiation in combination with doxorubicin (lymphoma cell line G3; G3, lymphoma B cells): ++ (potentiation between 2.1 to 5 fold increase)
- IC50 (lymphoma cell line G3; analog alone, lymphoma cell line G3, read-out: IC50): 43 µM
- IC50 (lymphoma cell line G3; with 1 μM doxorubicin, lymphoma cell line G3, read-out: IC50 (μM) with doxorubicin (1 μM)): 1.14 µM
- VEGF secretion (VEGF): 436 pg/million cells
- Magnitude of potentiation in combination with doxorubicin [4]: + (potentiation between 1.2 to 2.0 fold increase)
- Magnitude of potentiation in combination with doxorubicin [5]: ++ (potentiation between 2.1 to 5 fold increase)
- total intracellular ROS [6]: induced ROS
- tumor volume lower than in mice receiving only DOXIL ([7]; seventh study (multiple, large tumors), after 46 days): 55%
- tumor volume reduction during the course of the study ([7]; seventh study): 50%
- tumor volume lower than in mice receiving only DOXIL ([7]; sixth study, after 41 days): 66%
- Magnitude of potentiation in combination with doxorubicin [8]: ++ (potentiation between 2.1 to 5 fold increase)
- total intracellular ROS [9]: induced ROS
- Magnitude of potentiation in combination with doxorubicin [10]: + (potentiation between 1.2 to 2.0 fold increase)
- Magnitude of potentiation in combination with doxorubicin ([2]; SK-OV3, ovarian carcinoma): +++ (potentiation greater than 5 fold increase)
- inhibition of efflux pumps (ABCB1 pumps; NCI/ADR-RES and G3 cells): clear inhibition of efflux pumps
- rank as inhibitor of ABCB1 among rifabutin derivatives (ABCB1 pumps; calcein-AM efflux): strongest inhibitor
- comparative cytotoxicity to normal cells [11]: not toxic to normal cells
- time to first increase in ROS (ROS in G3 lymphoma cells; 10 uM RTI-79, 0 to 30 minutes): 1 min
- total intracellular ROS (ROS in G3 lymphoma cells; 10 uM, 2 hrs): induced ROS
- heart histology (H&E), complete blood count and manual differential [12]: no significant differences
- MMP2 secretion (MMP2): 10.5 ng/million cells
- time to maximal plasma concentration [13]: ≤ 3 h
- Magnitude of potentiation in combination with doxorubicin [14]: + (potentiation between 1.2 to 2.0 fold increase)
